Results from the NIST ThermoML archive (doi:10.1007/s10765-007-0223-x).
Numbers after ± are expanded uncertainties.

Assay: xn = mol fraction of the nth substance listed
Settings: 101 kPa, Liquid; for speed of sound: Single path-length method

## COC(C)(C)C [2-methoxy-2-methylpropane] + CC(C)CC(C)(C)C
305.65 K, x1 = 0.049
  mass density: 683.001 ± 0.65 kg/m3
305.65 K, x1 = 0.091
  mass density: 684.244 ± 0.64 kg/m3
305.65 K, x1 = 0.197
  mass density: 687.643 ± 0.64 kg/m3
305.65 K, x1 = 0.296
  mass density: 691.083 ± 0.63 kg/m3
305.65 K, x1 = 0.394
  mass density: 694.818 ± 0.63 kg/m3
305.65 K, x1 = 0.507
  mass density: 699.54 ± 0.62 kg/m3
305.65 K, x1 = 0.603
  mass density: 703.873 ± 0.61 kg/m3
305.65 K, x1 = 0.7
  mass density: 708.82 ± 0.61 kg/m3
305.65 K, x1 = 0.79
  mass density: 713.83 ± 0.6 kg/m3
305.65 K, x1 = 0.898
  mass density: 720.394 ± 0.59 kg/m3
305.65 K, x1 = 0.951
  mass density: 723.998 ± 0.59 kg/m3
305.65 K, x1 = 1
  mass density: 726.444 ± 0.58 kg/m3
308.15 K, x1 = 0.049
  speed of sound: 1037.7 ± 2.1 m/s
  mass density: 680.9 ± 0.65 kg/m3
308.15 K, x1 = 0.091
  speed of sound: 1035 ± 2.1 m/s
  mass density: 682.124 ± 0.65 kg/m3
308.15 K, x1 = 0.197
  speed of sound: 1029 ± 2.1 m/s
  mass density: 685.47 ± 0.64 kg/m3
308.15 K, x1 = 0.296
  speed of sound: 1022.8 ± 2.1 m/s
  mass density: 688.864 ± 0.64 kg/m3
308.15 K, x1 = 0.394
  speed of sound: 1017.6 ± 2.1 m/s
  mass density: 692.544 ± 0.63 kg/m3
308.15 K, x1 = 0.507
  speed of sound: 1011 ± 2.1 m/s
  mass density: 697.225 ± 0.62 kg/m3
308.15 K, x1 = 0.603
  speed of sound: 1006.8 ± 2.1 m/s
  mass density: 701.481 ± 0.62 kg/m3
308.15 K, x1 = 0.7
  speed of sound: 1002 ± 2.1 m/s
  mass density: 706.365 ± 0.61 kg/m3
308.15 K, x1 = 0.79
  speed of sound: 998.04 ± 2.1 m/s
  mass density: 711.31 ± 0.6 kg/m3
308.15 K, x1 = 0.898
  speed of sound: 993.91 ± 2.1 m/s
  mass density: 717.802 ± 0.6 kg/m3
308.15 K, x1 = 0.951
  speed of sound: 992.13 ± 2.1 m/s
  mass density: 721.377 ± 0.59 kg/m3
308.15 K, x1 = 1
  speed of sound: 991.34 ± 2.1 m/s
  mass density: 723.763 ± 0.58 kg/m3
310.65 K, x1 = 0.049
  speed of sound: 1027.3 ± 2.1 m/s
  mass density: 678.79 ± 0.65 kg/m3
310.65 K, x1 = 0.091
  speed of sound: 1024.6 ± 2.1 m/s
  mass density: 679.994 ± 0.65 kg/m3
310.65 K, x1 = 0.197
  speed of sound: 1018.5 ± 2.1 m/s
  mass density: 683.293 ± 0.64 kg/m3
310.65 K, x1 = 0.296
  speed of sound: 1012.2 ± 2.1 m/s
  mass density: 686.637 ± 0.64 kg/m3
310.65 K, x1 = 0.394
  speed of sound: 1006.9 ± 2.1 m/s
  mass density: 690.27 ± 0.64 kg/m3
310.65 K, x1 = 0.507
  speed of sound: 1000.2 ± 2.1 m/s
  mass density: 694.875 ± 0.63 kg/m3
310.65 K, x1 = 0.603
  speed of sound: 995.9 ± 2.1 m/s
  mass density: 699.077 ± 0.62 kg/m3
310.65 K, x1 = 0.7
  speed of sound: 991.12 ± 2.1 m/s
  mass density: 703.915 ± 0.61 kg/m3
310.65 K, x1 = 0.79
  speed of sound: 986.9 ± 2.1 m/s
  mass density: 708.777 ± 0.61 kg/m3
310.65 K, x1 = 0.898
  speed of sound: 982.76 ± 2.1 m/s
  mass density: 715.208 ± 0.6 kg/m3
310.65 K, x1 = 0.951
  speed of sound: 981.15 ± 2.1 m/s
  mass density: 718.741 ± 0.59 kg/m3
310.65 K, x1 = 1
  speed of sound: 980 ± 2.1 m/s
  mass density: 721.069 ± 0.59 kg/m3
313.15 K, x1 = 0.049
  speed of sound: 1017 ± 2.1 m/s
  mass density: 676.674 ± 0.65 kg/m3
313.15 K, x1 = 0.091
  speed of sound: 1014.4 ± 2.1 m/s
  mass density: 677.857 ± 0.65 kg/m3
313.15 K, x1 = 0.197
  speed of sound: 1008 ± 2.1 m/s
  mass density: 681.108 ± 0.65 kg/m3
313.15 K, x1 = 0.296
  speed of sound: 1001.9 ± 2.1 m/s
  mass density: 684.416 ± 0.64 kg/m3
313.15 K, x1 = 0.394
  speed of sound: 996.15 ± 2.1 m/s
  mass density: 687.984 ± 0.64 kg/m3
313.15 K, x1 = 0.507
  speed of sound: 989.48 ± 2.1 m/s
  mass density: 692.513 ± 0.63 kg/m3
313.15 K, x1 = 0.603
  speed of sound: 984.99 ± 2.1 m/s
  mass density: 696.659 ± 0.63 kg/m3
313.15 K, x1 = 0.7
  speed of sound: 980.08 ± 2.1 m/s
  mass density: 701.432 ± 0.62 kg/m3
313.15 K, x1 = 0.79
  speed of sound: 975.76 ± 2.1 m/s
  mass density: 706.232 ± 0.61 kg/m3
313.15 K, x1 = 0.898
  speed of sound: 971.49 ± 2.1 m/s
  mass density: 712.585 ± 0.6 kg/m3
313.15 K, x1 = 0.951
  speed of sound: 969.68 ± 2.1 m/s
  mass density: 716.075 ± 0.6 kg/m3
313.15 K, x1 = 1
  speed of sound: 968.63 ± 2.1 m/s
  mass density: 718.357 ± 0.59 kg/m3
315.65 K, x1 = 0.049
  speed of sound: 1006.8 ± 2.1 m/s
  mass density: 674.551 ± 0.66 kg/m3
315.65 K, x1 = 0.091
  speed of sound: 1004 ± 2.1 m/s
  mass density: 675.716 ± 0.66 kg/m3
315.65 K, x1 = 0.197
  speed of sound: 997.54 ± 2.1 m/s
  mass density: 678.915 ± 0.65 kg/m3
315.65 K, x1 = 0.296
  speed of sound: 991.38 ± 2.1 m/s
  mass density: 682.172 ± 0.65 kg/m3
315.65 K, x1 = 0.394
  speed of sound: 985.48 ± 2.1 m/s
  mass density: 685.682 ± 0.64 kg/m3
315.65 K, x1 = 0.507
  speed of sound: 978.73 ± 2.1 m/s
  mass density: 690.141 ± 0.64 kg/m3
315.65 K, x1 = 0.603
  speed of sound: 974.09 ± 2.1 m/s
  mass density: 694.229 ± 0.63 kg/m3
315.65 K, x1 = 0.7
  speed of sound: 969.06 ± 2.1 m/s
  mass density: 698.938 ± 0.62 kg/m3
315.65 K, x1 = 0.79
  speed of sound: 964.56 ± 2.1 m/s
  mass density: 703.665 ± 0.62 kg/m3
315.65 K, x1 = 0.898
  speed of sound: 960.23 ± 2.1 m/s
  mass density: 709.948 ± 0.61 kg/m3
315.65 K, x1 = 0.951
  speed of sound: 958.31 ± 2.1 m/s
  mass density: 713.392 ± 0.6 kg/m3
315.65 K, x1 = 1
  speed of sound: 957.31 ± 2.1 m/s
  mass density: 715.636 ± 0.6 kg/m3
318.15 K, x1 = 0.049
  speed of sound: 996.53 ± 2.1 m/s
  mass density: 672.418 ± 0.66 kg/m3
318.15 K, x1 = 0.091
  speed of sound: 993.65 ± 2.1 m/s
  mass density: 673.564 ± 0.66 kg/m3
318.15 K, x1 = 0.197
  speed of sound: 987.14 ± 2.1 m/s
  mass density: 676.709 ± 0.65 kg/m3
318.15 K, x1 = 0.296
  speed of sound: 980.84 ± 2.1 m/s
  mass density: 679.911 ± 0.65 kg/m3
318.15 K, x1 = 0.394
  speed of sound: 974.83 ± 2.1 m/s
  mass density: 683.366 ± 0.65 kg/m3
318.15 K, x1 = 0.507
  speed of sound: 968.07 ± 2.1 m/s
  mass density: 687.763 ± 0.64 kg/m3
318.15 K, x1 = 0.603
  speed of sound: 963.2 ± 2.1 m/s
  mass density: 691.788 ± 0.63 kg/m3
318.15 K, x1 = 0.7
  speed of sound: 958.04 ± 2.1 m/s
  mass density: 696.427 ± 0.63 kg/m3
318.15 K, x1 = 0.79
  speed of sound: 953.55 ± 2.1 m/s
  mass density: 701.097 ± 0.62 kg/m3
318.15 K, x1 = 0.898
  speed of sound: 949.03 ± 2.1 m/s
  mass density: 707.292 ± 0.61 kg/m3
318.15 K, x1 = 0.951
  speed of sound: 947.02 ± 2.1 m/s
  mass density: 710.693 ± 0.61 kg/m3
318.15 K, x1 = 1
  speed of sound: 946.03 ± 2.1 m/s
  mass density: 712.897 ± 0.6 kg/m3
320.65 K, x1 = 0.049
  speed of sound: 986.33 ± 2.1 m/s
  mass density: 670.282 ± 0.66 kg/m3
320.65 K, x1 = 0.091
  speed of sound: 983.34 ± 2.1 m/s
  mass density: 671.436 ± 0.66 kg/m3
320.65 K, x1 = 0.197
  speed of sound: 976.73 ± 2.1 m/s
  mass density: 674.493 ± 0.66 kg/m3
320.65 K, x1 = 0.296
  speed of sound: 970.3 ± 2.1 m/s
  mass density: 677.642 ± 0.65 kg/m3
320.65 K, x1 = 0.394
  speed of sound: 964.2 ± 2.1 m/s
  mass density: 681.043 ± 0.65 kg/m3
320.65 K, x1 = 0.507
  speed of sound: 957.34 ± 2.1 m/s
  mass density: 685.37 ± 0.64 kg/m3
320.65 K, x1 = 0.603
  speed of sound: 952.36 ± 2.1 m/s
  mass density: 689.334 ± 0.64 kg/m3
320.65 K, x1 = 0.7
  speed of sound: 947.08 ± 2.1 m/s
  mass density: 693.905 ± 0.63 kg/m3
320.65 K, x1 = 0.79
  speed of sound: 942.46 ± 2.1 m/s
  mass density: 698.504 ± 0.62 kg/m3
320.65 K, x1 = 0.898
  speed of sound: 937.81 ± 2.1 m/s
  mass density: 704.622 ± 0.61 kg/m3
320.65 K, x1 = 0.951
  speed of sound: 935.72 ± 2.1 m/s
  mass density: 707.978 ± 0.61 kg/m3
320.65 K, x1 = 1
  speed of sound: 934.76 ± 2.1 m/s
  mass density: 710.141 ± 0.6 kg/m3
323.15 K, x1 = 0.049
  speed of sound: 976.18 ± 2.1 m/s
  mass density: 668.138 ± 0.67 kg/m3
323.15 K, x1 = 0.091
  speed of sound: 973.04 ± 2.1 m/s
  mass density: 669.267 ± 0.67 kg/m3
323.15 K, x1 = 0.197
  speed of sound: 966.34 ± 2.1 m/s
  mass density: 672.267 ± 0.66 kg/m3
323.15 K, x1 = 0.296
  speed of sound: 959.8 ± 2.1 m/s
  mass density: 675.361 ± 0.66 kg/m3
323.15 K, x1 = 0.394
  speed of sound: 953.63 ± 2.1 m/s
  mass density: 678.707 ± 0.65 kg/m3
323.15 K, x1 = 0.507
  speed of sound: 946.69 ± 2.1 m/s
  mass density: 682.969 ± 0.65 kg/m3
323.15 K, x1 = 0.603
  speed of sound: 941.57 ± 2.1 m/s
  mass density: 686.867 ± 0.64 kg/m3
323.15 K, x1 = 0.7
  speed of sound: 936.24 ± 2.1 m/s
  mass density: 691.375 ± 0.63 kg/m3
323.15 K, x1 = 0.79
  speed of sound: 931.51 ± 2.1 m/s
  mass density: 695.909 ± 0.63 kg/m3
323.15 K, x1 = 0.898
  speed of sound: 926.65 ± 2.1 m/s
  mass density: 701.938 ± 0.62 kg/m3
323.15 K, x1 = 0.951
  speed of sound: 924.5 ± 2.1 m/s
  mass density: 705.25 ± 0.61 kg/m3
323.15 K, x1 = 1
  speed of sound: 923.46 ± 2.1 m/s
  mass density: 707.381 ± 0.61 kg/m3
